# Test results reported in ChEMBL document CHEMBL1123104, “Enzyme-activated irreversible inhibitors of monoamine oxidase: phenylallylamine structure-activity relationships” (J Med Chem, 1985).
# Target: T1, Monoamine oxidase (Rattus norvegicus, UniProt P19643+P21396)
# T1 sequence (P19643 whole entry): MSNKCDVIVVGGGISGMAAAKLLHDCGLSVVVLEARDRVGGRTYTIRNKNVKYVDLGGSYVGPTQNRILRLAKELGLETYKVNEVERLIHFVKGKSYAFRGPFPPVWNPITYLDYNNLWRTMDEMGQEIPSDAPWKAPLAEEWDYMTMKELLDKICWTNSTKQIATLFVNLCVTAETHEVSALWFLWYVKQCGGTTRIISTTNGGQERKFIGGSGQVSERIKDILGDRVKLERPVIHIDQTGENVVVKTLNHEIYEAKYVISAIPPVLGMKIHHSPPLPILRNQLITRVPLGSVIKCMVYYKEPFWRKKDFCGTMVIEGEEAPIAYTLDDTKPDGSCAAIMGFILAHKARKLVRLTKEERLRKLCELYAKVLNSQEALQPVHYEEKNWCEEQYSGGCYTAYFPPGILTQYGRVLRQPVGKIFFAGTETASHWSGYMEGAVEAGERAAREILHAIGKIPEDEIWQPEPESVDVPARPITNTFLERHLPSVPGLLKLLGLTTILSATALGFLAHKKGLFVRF
# T1 sequence (P21396 whole entry): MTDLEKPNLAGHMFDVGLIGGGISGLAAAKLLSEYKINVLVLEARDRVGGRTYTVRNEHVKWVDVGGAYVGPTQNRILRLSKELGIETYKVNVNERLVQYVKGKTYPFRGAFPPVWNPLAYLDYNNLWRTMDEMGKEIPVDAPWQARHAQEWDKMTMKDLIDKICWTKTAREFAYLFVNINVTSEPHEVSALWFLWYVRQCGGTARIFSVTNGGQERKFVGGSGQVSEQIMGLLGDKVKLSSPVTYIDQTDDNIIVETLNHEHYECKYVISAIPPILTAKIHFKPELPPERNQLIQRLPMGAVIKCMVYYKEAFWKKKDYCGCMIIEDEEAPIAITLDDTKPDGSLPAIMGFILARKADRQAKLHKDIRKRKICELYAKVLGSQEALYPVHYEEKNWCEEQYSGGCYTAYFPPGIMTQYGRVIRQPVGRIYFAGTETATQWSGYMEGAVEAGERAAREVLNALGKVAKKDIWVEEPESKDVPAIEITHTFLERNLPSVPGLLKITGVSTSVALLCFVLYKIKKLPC
# Assay: Inhibitory activity against rat brain mitochondrial Monoamine oxidase
row,IC50,SMILES
1,150 nM,Cl.NC/C(=C\F)c1ccccc1
2,400000 nM,C=C(CN)c1ccccc1.Cl
3,100 nM,Cl.NC/C(=C/F)c1ccc(O)c(O)c1
4,500000 nM,Cl.NCC(=C(Br)Br)c1ccccc1
5,18 nM,Cl.NC/C(=C/F)c1ccccc1
6,500000 nM,Cl.NC/C(=C\Cl)c1ccccc1
7,7 nM,Cl.NC/C(=C/F)c1cccc(C(F)(F)F)c1
8,20 nM,Cl.NC/C(=C/F)c1ccc(Cl)cc1
9,50 nM,Cl.NC/C(=C/F)c1cccc(O)c1
10,25 nM,COc1ccc(/C(=C\F)CN)cc1OC.Cl
11,100000 nM,Cl.NC/C(=C/Cl)c1ccccc1
12,40000 nM,Cl.NC/C(=C/Br)c1ccccc1
13,25 nM,COc1ccccc1/C(=C\F)CN.Cl
14,5 nM,COc1cccc(/C(=C\F)CN)c1.Cl
15,10 nM,Cc1ccc(/C(=C\F)CN)cc1.Cl

row,SMILES,IC50
1,Cl.NCC(=C(F)F)c1ccccc1,10000 nM
2,C=CCN [ALLYLAMINE],500000 nM
